These results are taken from patent US10377753B2, “Substituted 4-azaindoles and their use as GluN2B receptor modulators” (Janssen Pharmaceutica NV, priority 2015, dated 2019).

SMILES strings stand for the structures.

For orientation: IC50 means the concentration that gives 50% inhibition.

Sequence of cloned human NR1/NR2B ion channels (Q13224 27-1484, other chains not shown): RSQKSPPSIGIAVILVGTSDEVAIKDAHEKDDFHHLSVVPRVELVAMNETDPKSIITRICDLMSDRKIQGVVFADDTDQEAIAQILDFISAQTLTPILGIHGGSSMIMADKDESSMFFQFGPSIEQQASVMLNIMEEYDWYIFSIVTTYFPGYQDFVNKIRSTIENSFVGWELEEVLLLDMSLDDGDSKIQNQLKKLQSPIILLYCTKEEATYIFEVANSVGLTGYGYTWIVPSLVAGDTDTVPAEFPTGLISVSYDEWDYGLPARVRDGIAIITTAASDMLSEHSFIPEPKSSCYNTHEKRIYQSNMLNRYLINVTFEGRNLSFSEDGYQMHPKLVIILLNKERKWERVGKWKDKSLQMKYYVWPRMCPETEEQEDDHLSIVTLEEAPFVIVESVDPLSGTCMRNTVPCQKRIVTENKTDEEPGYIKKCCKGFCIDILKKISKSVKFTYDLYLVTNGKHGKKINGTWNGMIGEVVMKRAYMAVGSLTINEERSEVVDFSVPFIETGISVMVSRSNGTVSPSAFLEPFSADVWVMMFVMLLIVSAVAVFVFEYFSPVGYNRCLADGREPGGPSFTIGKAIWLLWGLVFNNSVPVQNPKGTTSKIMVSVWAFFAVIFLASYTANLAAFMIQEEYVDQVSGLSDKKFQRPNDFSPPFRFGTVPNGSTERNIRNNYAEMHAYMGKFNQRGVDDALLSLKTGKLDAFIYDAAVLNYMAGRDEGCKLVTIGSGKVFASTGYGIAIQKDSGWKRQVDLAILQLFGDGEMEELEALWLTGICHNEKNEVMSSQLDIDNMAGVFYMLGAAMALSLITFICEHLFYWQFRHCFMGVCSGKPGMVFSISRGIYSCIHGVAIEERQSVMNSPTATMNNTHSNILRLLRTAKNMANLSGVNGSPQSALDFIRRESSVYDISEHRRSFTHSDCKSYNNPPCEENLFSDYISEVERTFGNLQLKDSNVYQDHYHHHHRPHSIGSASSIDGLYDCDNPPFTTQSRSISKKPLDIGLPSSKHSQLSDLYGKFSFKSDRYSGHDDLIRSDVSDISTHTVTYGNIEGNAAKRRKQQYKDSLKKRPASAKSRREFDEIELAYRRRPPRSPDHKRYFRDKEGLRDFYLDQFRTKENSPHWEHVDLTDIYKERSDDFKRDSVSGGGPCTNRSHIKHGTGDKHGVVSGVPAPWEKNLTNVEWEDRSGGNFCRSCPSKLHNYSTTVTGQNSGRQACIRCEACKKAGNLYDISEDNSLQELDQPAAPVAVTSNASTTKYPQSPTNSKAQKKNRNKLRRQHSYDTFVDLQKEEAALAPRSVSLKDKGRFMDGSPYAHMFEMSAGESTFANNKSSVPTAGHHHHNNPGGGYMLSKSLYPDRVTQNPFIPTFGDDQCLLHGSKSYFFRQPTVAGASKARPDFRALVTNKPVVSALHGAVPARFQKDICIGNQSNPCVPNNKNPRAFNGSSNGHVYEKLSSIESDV

The target of this assay is cloned human NR1/NR2B ion channels (Homo sapiens (Human), UniProt Q05586+Q13224). Kind of assay: HNR2BC: effects of test articles on cloned human NR1/NR2B ion channels expressed in mammalian cells (FLIPR calcium flux). In kind it is cell-based. The note with it: cloned human NR1/NR2B, Table 5. The procedure:
HNR2BC: Effects of Test Articles on Cloned Human NR1/NR2B Ion Channels Expressed in Mammalian Cells
NMDA receptors are ion channels that are highly permeable to Ca^2+ ions, rendering it possible to monitor NMDA receptor function using cell-based calcium flux assay. In this assay, co-agonists glutamate and glycine are added to cells heterologously expressing human GluN1/GluN2B NMDA receptors to initiate cellular Ca^2+ influx. The time course of the changes in intracellular calcium is measured using a fluorescent dye and a FLIPR (Fluorometric Imaging Plate Reader) device.
Twenty four hours before measurements, the expression of the NMDA receptors in the stable cell line is induced with Tet-On inducible system in the presence of a non-selective NMDA receptor blocker. On the day of the experiment, cell culture media is carefully washed and the cells are loaded with Calcium 5 Dye Kit (Molecular Devices) in dye loading buffer containing 137 mM NaCl, 4 mM KCl, 2 mM CaCl2, 0.5 mM MgCl2, 10 mM HEPES and 5 mM D-glucose; pH 7.4. After 1 h incubation at the room temperature, the dye is washed away with the assay buffer (137 mM NaCl, 4 mM KCl, 2 mM CaCl2, 0.01 mM EDTA, 10 mM HEPES and 5 mM D-glucose; pH 7.4) In the FLIPR TETRA reader, various concentrations of the test compounds are added to the cells for 5 min while fluorescence is monitored to detect potential agonist activity. Next, co-agonists, glutamate and glycine are added for another 5 minutes. The concentration of glutamate corresponding to ˜EC80 is used to maximize the assay's signal window and ability to detect NMDA receptor antagonists and negative allosteric modulators. A saturating concentration (10 μM) of glycine is also present in the assay. […] The fluorescent signal in the presence of test compounds is quantified and normalized to the signal defined by the appropriate control wells.
(Calcium assays in cells follow changes in intracellular calcium, usually with a dye or a luminescent sensor.)
Consider `O=C(Cn1cc(Br)c2ncc(-c3ccc(F)cc3)cc21)N1CCC1` [Example 18, 1-(Azetidin-1-yl)-2-[3-bromo-6-(4-fluorophenyl)pyrrolo[3,2-b]pyridin-1-yl]ethanone], for which the IC50 is 20 nM.

Regarding `O=C(Cn1cc(Br)c2ncc(-c3ccc(F)cc3)cc21)N1CCCC1` [Example 19, 2-[3-Bromo-6-(4-fluorophenyl)pyrrolo[3,2-b]pyridin-1-yl]-1-pyrrolidin-1-yl-ethanone], the IC50 was 31.6 nM.

Turning to `O=C(Cn1cc(Br)c2ncc(-c3ccc(F)cc3)cc21)N1CCOCC1` [Example 20, 2-[3-Bromo-6-(4-fluorophenyl)pyrrolo[3,2-b]pyridin-1-yl]-1-morpholino-ethanone], the IC50 was 50.1 nM.

As to `Cc1cccc(-c2cnc3c(Br)cn(CC(=O)NC4CC4)c3c2)c1` [Example 21, 2-[3-Bromo-6-(m-tolyl)pyrrolo[3,2-b]pyridin-1-yl]-N-cyclopropyl-acetamide], the IC50 is 39.8 nM.

Consider `Cc1cccc(-c2cnc3c(Br)cn(CC(=O)N4CCC4)c3c2)c1` [Example 22, 1-(Azetidin-1-yl)-2-[3-bromo-6-(m-tolyl)pyrrolo[3,2-b]pyridin-1-yl]ethanone], for which the IC50 was 25.1 nM.

`Cc1cccc(-c2cnc3c(Br)cn(CC(=O)N4CCCC4)c3c2)c1` [Example 23, 2-[3-Bromo-6-(m-tolyl)pyrrolo[3,2-b]pyridin-1-yl]-1-pyrrolidin-1-yl-ethanone]: the IC50 was 50.1 nM.

Turning to `Cc1cccc(-c2cnc3c(Br)cn(CC(=O)N4CCOCC4)c3c2)c1` [Example 24, 2-[3-Bromo-6-(m-tolyl)pyrrolo[3,2-b]pyridin-1-yl]-1-morpholino-ethanone], the IC50 is 100 nM.

With `Cc1cc(-c2cnc3c(Cl)cn(CC(=O)N4CC(F)(F)C4)c3c2)ccc1F` [Example 25, 2-[3-Chloro-6-(4-fluoro-3-methyl-phenyl)pyrrolo[3,2-b]pyridin-1-yl]-1-(3,3-difluoroazetidin-1-yl)ethanone], the IC50 was 79.4 nM.

Consider `Cc1cc(-c2cnc3c(Cl)cn(CC(=O)N4CC(F)C4)c3c2)ccc1F` [Example 26, 2-[3-Chloro-6-(4-fluoro-3-methyl-phenyl)pyrrolo[3,2-b]pyridin-1-yl]-1-(3-fluoroazetidin-1-yl)ethanone], for which the IC50 was 39.8 nM.

In the case of `Cc1cn(CC(=O)N2CCCC2)c2cc(-c3ccc(F)cc3)cnc12` [Example 27, 2-[6-(4-Fluorophenyl)-3-methyl-pyrrolo[3,2-b]pyridin-1-yl]-1-pyrrolidin-1-yl-ethanone], the IC50 is 50.1 nM.

With `Cc1cn(CC(=O)N2CCOCC2)c2cc(-c3ccc(F)cc3)cnc12` [Example 28, 2-[6-(4-Fluorophenyl)-3-methyl-pyrrolo[3,2-b]pyridin-1-yl]-1-morpholino-ethanone], the IC50 was 200 nM.

As to `O=C(Cn1cc(Cl)c2ncc(-c3ccc(F)c(F)c3)cc21)N1CCC1` [Example 29, 1-(Azetidin-1-yl)-2-[3-chloro-6-(3,4-difluorophenyl)pyrrolo[3,2-b]pyridin-1-yl]ethanone], the IC50 was 20 nM.

For the molecule `O=C(Cn1cc(Cl)c2ncc(-c3ccc(F)c(F)c3)cc21)N1CC(F)C1` [Example 30, 2-[3-Chloro-6-(3,4-difluorophenyl)pyrrolo[3,2-b]pyridin-1-yl]-1-(3-fluoroazetidin-1-yl)ethanone], the IC50 was 20 nM.

For `Cc1cc2ncc(-c3ccc(F)cc3)cc2n1CC(=O)N1CCOCC1` [Example 31, 2-[6-(4-Fluorophenyl)-2-methyl-pyrrolo[3,2-b]pyridin-1-yl]-1-morpholino-ethanone], the IC50 is 3160 nM.

Turning to `Cc1cn(CC(=O)NC2CC2)c2cc(-c3ccc(F)cc3)cnc12` [Example 32, N-Cyclopropyl-2-[6-(4-fluorophenyl)-3-methyl-pyrrolo[3,2-b]pyridin-1-yl]acetamide], the IC50 is 398 nM.

Consider `Cc1cn(CC(=O)N2CCC2)c2cc(-c3ccc(F)cc3)cnc12` [Example 33, 1-(Azetidin-1-yl)-2-[6-(4-fluorophenyl)-3-methyl-pyrrolo[3,2-b]pyridin-1-yl]ethanone], for which the concentration for half-maximal inhibition (IC50) was 63.1 nM.
